Values of other authors in US20050215536A1, “Sequential SPRM/ progestin treatment” (priority 2004, published 2005).

Key:
[1] = premenopausal women
[2] = target: T1, progesterone receptor (Oryctolagus cuniculus, UniProt P06186); details: for McPhail score: rabbit model, scale of 0-4; for agonist activity in the McPhail bioassay: rabbits
T1 construct: SPRMs score lower than progesterone in the McPhail bioassay in rabbits; from tissue; host or cells: live rabbit
T1 sequence (P06186 1-930): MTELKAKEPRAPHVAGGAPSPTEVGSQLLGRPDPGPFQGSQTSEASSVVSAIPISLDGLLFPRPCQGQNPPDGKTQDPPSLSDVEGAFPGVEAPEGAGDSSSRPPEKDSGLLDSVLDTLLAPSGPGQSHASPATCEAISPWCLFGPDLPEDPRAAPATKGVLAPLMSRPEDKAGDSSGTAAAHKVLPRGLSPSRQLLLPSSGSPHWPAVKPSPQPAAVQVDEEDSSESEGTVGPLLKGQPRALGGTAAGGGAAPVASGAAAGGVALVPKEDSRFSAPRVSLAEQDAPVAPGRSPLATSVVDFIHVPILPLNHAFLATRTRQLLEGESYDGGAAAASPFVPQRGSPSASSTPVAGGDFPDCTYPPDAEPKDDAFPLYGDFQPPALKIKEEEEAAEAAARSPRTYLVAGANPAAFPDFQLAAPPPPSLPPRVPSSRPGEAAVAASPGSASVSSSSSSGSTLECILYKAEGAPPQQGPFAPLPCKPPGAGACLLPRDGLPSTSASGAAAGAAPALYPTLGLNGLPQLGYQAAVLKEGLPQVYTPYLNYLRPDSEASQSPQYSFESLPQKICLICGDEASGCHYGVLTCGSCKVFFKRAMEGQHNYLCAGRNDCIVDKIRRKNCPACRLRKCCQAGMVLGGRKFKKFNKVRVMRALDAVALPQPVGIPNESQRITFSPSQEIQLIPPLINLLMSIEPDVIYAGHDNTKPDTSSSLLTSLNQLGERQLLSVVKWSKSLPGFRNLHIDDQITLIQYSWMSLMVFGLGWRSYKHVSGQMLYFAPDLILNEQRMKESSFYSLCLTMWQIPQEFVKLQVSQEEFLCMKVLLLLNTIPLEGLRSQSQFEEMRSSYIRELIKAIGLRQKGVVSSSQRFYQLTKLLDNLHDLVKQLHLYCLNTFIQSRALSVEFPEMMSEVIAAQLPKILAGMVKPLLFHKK

| McPhail score [2] | agonist activity in the McPhail bioassay [2] | Compound | withdrawal bleeding (start of spontaneous menstrual cycle), time after stopping the SPRM treatment ([1]; all subjects, latest occurrence) | resumption of menstruation, time after cessation of treatment ([1]; majority of subjects) [days] |
| --- | --- | --- | --- | --- |
| – | – | COC[C@]1(OC)CC[C@H]2[C@@H]3CCC4=CC(=O)CCC4=C3[C@@H](c3ccc(/C=N/O)cc3)C[C@@]21C [J867, 4-[17β-Methoxy-17α-(methoxymethyl)-3-oxoestra-4,9-dien-11β-yl]benzaldehyd-(1E)-oxim] | up to 90 days | ≤ 30 |
| less than 0.5 | do not show any agonist activity | CC#C[C@]1(O)CC[C@H]2[C@@H]3CCC4=CC(=O)CCC4=C3[C@@H](c3ccc(N(C)C)cc3)C[C@@]21C [RU486, mifepristone] | – | – |
| – | do not show any agonist activity | CN(C)c1ccc([C@H]2C[C@]3(C)[C@@H](CC[C@]3(O)CCCO)[C@@H]3CCC4=CC(=O)CCC4=C32)cc1 [onapristone] | – | – |
| 4 | – | CC(=O)[C@H]1CC[C@H]2[C@@H]3CCC4=CC(=O)CC[C@]4(C)[C@H]3CC[C@]12C [progesterone] | – | – |
